These results are taken from US20190040004A1, “NEW COMPOUNDS FOR THE TREATMENT AND/OR PREVENTION OF PARASITIC DISEASES AND METHOD OF PRODUCTION OF THEREOF” (INSTITUT DE RECHERCHE POUR LE DEVELOPPEMENT (I.R.D.), priority 2013, published 2019).

The test system of data set [1] is HDAC activity from HELA nuclear extract. The data set is described as follows: Fluorimetric HDAC assay, HeLa nuclear extract. Type of data set: biochemical, human. The conditions noted are these: read-out: IC50 (better HDAC inhibitor among 9 tested compounds). On the procedure: (§1) HDAC inhibitory activity was determined by a fluorimetric HDAC assay kit (Active-motif, Belgium), according to manufacturer's instructions. […] Fluorogenic substrate (10 μL) was added, reaction was allowed to proceed for 30 min at room temperature, then stopped by the addition of a developer containing Tichostatin A.

In data set [2] the test system is T1, HDAC activity from HELA nuclear extract.
T1 construct: HELA Nuclear extracts IC50; other: HeLa nuclear extract, fluorimetric HDAC kit; […]
The data set can be described thus: Fluorimetric HDAC assay, HeLa nuclear extract. Type of data set: biochemical, human. The protocol: as §1

Data set [3] concerns Leishmania infantum luciferase expressing strain (MHOM/MA/ITMAP269). The data set can be described thus: microbe, parasite or virus in culture. Type of data set: cell-based. The conditions noted are these: for IC50: Leishmania infantum, read-out: L. infantum IC50. The source says: THP-1 is derived from the peripheral blood ofa human with acute monocytic leukemia.
Data set [4] deals with T. gondii (GFP expressing parasites) in HFF. The data set is described as follows: T. gondii proliferation in human foreskin fibroblasts. Conditions: for IC50: 24 h. The data set is classed as cell-based, Toxoplasma gondii. On the procedure: To assess the drug activity on toxoplasma proliferation, human foreskin fibroblasts (HFF) were infected with GFP expressing parasites for 30 mns (Striepen et al., Mol Biochem Parasitol. 1998, 92(2):325-38). Cells were then washed and drugs added at various concentrations ranging from 0.1 to 10 uM. After 24 h, cells were washed and fixed (PBS-formaldehyde 2%) and nucleus stained with Hoechst 33258 (2 μg/ml). The number of infected cells i.e cells harbouring a parasitophorous vacuole and the number of parasites per vacuole were determined using an Olympus ScanR microscope (Olympus).
(§2) Antiparasitic activity of a compound is represented by ICo50, which is calculated with Prism software (Prism4 for MacOSX Version 5.0b, December 2008). The cytoxicity of a compound against the host cells of L. infantum and T. gondii, such as THP-1 or HFF cells, was determined with a MTT assay, according to previously described protocol (Sereno et al., Antimicrob Agents Chemother. 2001, 45(4):1168-73). THP-1 is derived from the peripheral blood ofa human with acute monocytic leukemia.

In another data set the test system is HFF cells. The data set is described as follows: MTT cytotoxicity on HFF host cells. Type of data set: cell-based. On the procedure:
as §2

In another data set the test system is THP-1 cells. The data set can be described thus: MTT cytotoxicity on THP-1 host cells. Type of data set: cell-based. The protocol: as §2
The next data set concerns the target recombinant HDAC1 (Homo sapiens, UniProt Q13547). The data set can be described thus: Recombinant HDAC1 inhibition. The data set is classed as biochemical. Conditions: read-out: IC50 recombinant HDAC 1. On the procedure:
FIG. 2 illustrates the capacity of the different compounds of 600 nM to inhibit HDAC activity from HELA nuclear extract and from HDAC-recombinant proteins (HDAC 1, HDAC 3, HDAC 6, HDAC 8).
HDAC inhibitory activity was determined by a fluorimetric HDAC assay kit (Active-motif, Belgium), according to manufacturer's instructions. Briefly, 30 μL of HeLa nuclear extract were mixed with 5 μL of 10× compound to be tested and 10 μL of assay buffer. Fluorogenic substrate (10 μL) was added, reaction was allowed to proceed for 30 min at room temperature, then stopped by the addition of a developer containing Tichostatin A. Fluorescence was monitored after 30 min at excitation and emission wavelengths of 360 and 460 nm, respectively. […].

The target in the next data set is T2, recombinant HDAC6 (Homo sapiens, UniProt Q9UBN7).
T2 sequence (Q9UBN7 1-1215): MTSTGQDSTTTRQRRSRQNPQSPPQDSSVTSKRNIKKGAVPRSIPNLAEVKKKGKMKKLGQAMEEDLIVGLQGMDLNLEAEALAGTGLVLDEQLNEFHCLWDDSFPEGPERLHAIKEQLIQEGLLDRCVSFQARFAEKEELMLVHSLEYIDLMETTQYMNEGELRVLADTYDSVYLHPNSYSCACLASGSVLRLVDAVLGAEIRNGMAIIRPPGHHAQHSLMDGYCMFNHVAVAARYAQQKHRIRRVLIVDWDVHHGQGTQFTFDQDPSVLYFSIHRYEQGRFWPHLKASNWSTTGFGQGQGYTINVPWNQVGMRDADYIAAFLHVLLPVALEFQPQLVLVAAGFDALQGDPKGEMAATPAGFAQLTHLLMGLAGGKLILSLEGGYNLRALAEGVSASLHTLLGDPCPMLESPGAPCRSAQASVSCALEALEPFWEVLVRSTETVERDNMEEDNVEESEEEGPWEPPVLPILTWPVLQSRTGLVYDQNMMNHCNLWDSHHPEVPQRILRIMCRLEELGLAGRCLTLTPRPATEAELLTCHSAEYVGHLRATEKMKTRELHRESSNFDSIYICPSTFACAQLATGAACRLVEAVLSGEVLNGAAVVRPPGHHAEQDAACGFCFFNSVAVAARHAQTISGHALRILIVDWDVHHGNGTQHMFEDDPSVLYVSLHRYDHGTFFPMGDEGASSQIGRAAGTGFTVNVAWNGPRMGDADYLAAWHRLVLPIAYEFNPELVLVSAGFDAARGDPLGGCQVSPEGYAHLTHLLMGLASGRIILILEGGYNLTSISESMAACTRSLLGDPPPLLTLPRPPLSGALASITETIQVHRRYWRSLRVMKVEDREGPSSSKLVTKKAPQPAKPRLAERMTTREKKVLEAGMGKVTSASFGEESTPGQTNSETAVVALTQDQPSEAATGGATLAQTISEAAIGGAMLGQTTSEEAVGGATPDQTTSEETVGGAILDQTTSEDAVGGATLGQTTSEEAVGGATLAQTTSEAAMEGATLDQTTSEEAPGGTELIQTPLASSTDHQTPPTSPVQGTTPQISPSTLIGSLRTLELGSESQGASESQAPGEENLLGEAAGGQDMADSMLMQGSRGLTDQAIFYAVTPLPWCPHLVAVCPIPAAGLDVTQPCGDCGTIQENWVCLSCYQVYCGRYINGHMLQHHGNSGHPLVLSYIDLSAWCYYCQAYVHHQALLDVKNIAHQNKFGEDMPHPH
The data set can be described thus: Recombinant HDAC6 inhibition. Type of data set: biochemical.

For the next data set, the system named is type I RH-YFP parasites. The data set is described as follows: RH-YFP type I Toxoplasma proliferation in HFF. Conditions: 0.025 to 0.8 uM, 24 h. Type of data set: cell-based, Toxoplasma gondii. On the procedure:
(§3) To compare the activity of compounds according to the invention to that of prior art on toxoplasma proliferation, human foreskin fibroblasts (HFF) were plated in 96-wells plate (10 000 cells per well). Twenty-four hours later, cells were infected with 40 000 parasites, either RH-YFP type I or type II Prugniaud parasites or tachyzoites (kindly provided by B. Striepen, Athens) for one hour. Cells were then washed and drugs (compound D16 of formula
(§4) (FIG. 4 and FIG. 5) or compound according to the invention (363) (FIG. 6) added at various concentrations ranging from 0.025 to 0.8 uM. After 24 h, cells were washed and fixed (PBS-formaldehyde 2%) and nucleus stained with Hoechst 33258 (2 μg/ml). The number of infected cells ie. cells harbouring a parasitophorous vacuole and the number of parasites per vacuole was determined using an Olympus ScanR microscope (Olympus).

The subject of data set [5] is type II Prugniaud parasites. The data set is described as follows: Type II Prugniaud Toxoplasma proliferation in HFF. The data set is classed as cell-based, Toxoplasma gondii. The conditions noted are these: 0.025 to 0.8 uM, 24 h. The protocol:
as §3, §4

Setting [6] is: HeLa nuclear extract, fluorimetric HDAC kit, read-out: HELA Nuclear extracts IC50.
Where [7] appears, read: Toxoplasma gondii, Fibroblast, HFF infected, read-out: T. gondi IC50.
Setting [8] is: text summary of Table 1, less active compounds, read-out: HDAC inhibitory activity against HeLa cell nuclear extract.
Setting [9] is: Toxoplasma gondii, Fibroblast, read-out: T. gondi IC50, HFF infected, 24 h.

Entries after “also recorded” stand apart in the source; their conditions may differ. Read-outs that look alike come from different tables or passages of the source.

Sequence of recombinant HDAC1 (Q13547 whole entry): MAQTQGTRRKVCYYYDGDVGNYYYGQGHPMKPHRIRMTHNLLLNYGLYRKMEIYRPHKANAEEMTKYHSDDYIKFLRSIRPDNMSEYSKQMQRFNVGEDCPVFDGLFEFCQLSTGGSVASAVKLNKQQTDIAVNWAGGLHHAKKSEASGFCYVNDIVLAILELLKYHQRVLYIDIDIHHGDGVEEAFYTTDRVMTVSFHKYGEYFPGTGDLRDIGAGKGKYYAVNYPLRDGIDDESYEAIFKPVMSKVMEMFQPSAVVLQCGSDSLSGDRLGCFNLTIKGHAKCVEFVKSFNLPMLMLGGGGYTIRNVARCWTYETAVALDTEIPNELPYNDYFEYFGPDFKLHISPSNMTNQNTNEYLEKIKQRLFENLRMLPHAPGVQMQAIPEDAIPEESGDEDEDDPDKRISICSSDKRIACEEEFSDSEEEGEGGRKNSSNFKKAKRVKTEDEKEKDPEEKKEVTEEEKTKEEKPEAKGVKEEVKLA

With `O=C(NO)c1ccc(CNC(=O)c2cccc(F)c2)cc1` [Compound 345], the IC50 in data set [1] was 1700 nM; in data set [2] (setting [6]) it was 866 nM; in [4] (setting [7]) it was below 10000 nM; in data set [4] (read-out: T. gondi IC50, HFF infected) it was 5000 nM. In addition, in data set [3], the “anti-leishmanial activity, in words” value is recorded as “anti-leishmanial”. The “anti-toxoplasma activity, in words” value in [4] was “anti-toxoplasma activity”. The “IS Selectivity index LD50 (HFF)/IC50 T. gondii” value in the data set on HFF cells is given as 11.6. Besides, the “HFF LD50” value with HFF cells (human) stood at 58.3 ± 1.2 µM. Besides, the “IS Selectivity index LD50 (THP-1)/IC50 T. gondii” value with THP-1 cells came out at 0.3. Also, the “THP-1 LD50” value in the data set with THP-1 cells (human) was 1.7. +/− 0.5 μM.

Consider `O=C(NO)c1ccc(NC(=O)c2cccc(F)c2)cc1` [Compound 349], for which the IC50 in [2] (setting [6]) was 633 nM; in data set [4] (setting [7]), above 50000 nM. For the same compound, in the data set on HFF cells (human), the “HFF LD50” value is above 400 µM. For the same compound, in the data set with THP-1 cells (human), the “THP-1 LD50” value came to 264 ± 8.0 µM.

Regarding `O=C(NO)c1ccc(CNS(=O)(=O)c2cccc(F)c2)cc1` [Compound 350], the IC50 in data set [2] (setting [6]) was 8610 nM; in data set [2] (setting [8]), around 1000 nM; in data set [4] (setting [7]), 40000 nM. For the same compound, the “IS Selectivity index LD50 (HFF)/IC50 T. gondii” value with HFF cells is on record as 7.5. The “HFF LD50” value with HFF cells (human) stood at 300.0 ± 50.0 µM. The “IS Selectivity index LD50 (THP-1)/IC50 T. gondii” value in the data set with THP-1 cells worked out at 10. In addition, the “THP-1 LD50” value in the data set on THP-1 cells (human) was above 400 µM.

With `O=C(NO)c1ccc(NS(=O)(=O)c2cccc(F)c2)cc1` [Compound 351], the figures for the IC50 in data set [2] (setting [6]) and in [4] (setting [9]) were 881 nM and 50000 nM, respectively. Besides, the “IS Selectivity index LD50 (HFF)/IC50 T. gondii” value in the data set with HFF cells came to 2.3. Besides, the “HFF LD50” value with HFF cells (human) amounted to 116.5 ± 35 µM. Also, in the data set with THP-1 cells, the “IS Selectivity index LD50 (THP-1)/IC50 T. gondii” value is listed as 1.53.

Take `Cc1nc(-c2ccc(C(=O)NCc3ccc(C(=O)NO)cc3)cc2)cs1` [Compound 360]: the IC50 is 2200 nM in [1], 399 nM in [2] (setting [6]) and above 60000 nM in data set [3] (antiparasitic activity). For the same compound, the “IS Selectivity index LD50 (HFF)/IC50 T. gondii” value in the data set with HFF cells turned out to be 4.5. Also, the “HFF LD50” value with HFF cells (human) amounted to 22.6 ± 9.5 µM. For the same compound, in the data set on THP-1 cells, the “IS Selectivity index LD50 (THP-1)/IC50 T. gondii” value is on record as 0.4. The “THP-1 LD50” value in the data set on THP-1 cells (human) is 2.2 ± 0.5 µM.

For `Cc1nc(-c2ccc(C(=O)Nc3ccc(C(=O)NO)cc3)cc2)cs1` [Compound 361], the IC50 was 1820 nM in data set [2] (setting [6]), around 1000 nM in data set [2] (setting [8]), above 60000 nM in [3] and above 10000 nM in [4] (setting [9]). The “IS Selectivity index LD50 (HFF)/IC50 T. gondii” value in the data set with HFF cells worked out at 1.5. Besides, in the data set with HFF cells (human), the “HFF LD50” value came out at 25.0 ± 4.0 µM. Further, the “IS Selectivity index LD50 (THP-1)/IC50 T. gondii” value with THP-1 cells is reported as 25. Also, the “THP-1 LD50” value with THP-1 cells (human) is above 400 µM.

In the case of `COc1cccc(CC(=O)NCc2ccc(C(=O)NO)cc2)c1` [Compound 362], the IC50 is 518 nM in data set [2] (setting [6]) and 52500 nM in data set [4] (setting [7]). Further, the “IS Selectivity index LD50 (HFF)/IC50 T. gondii” value with HFF cells is above 8. Besides, the “HFF LD50” value with HFF cells (human) was above 400 µM. The “IS Selectivity index LD50 (THP-1)/IC50 T. gondii” value in the data set with THP-1 cells was determined as 0.5. Besides, the “THP-1 LD50” value in the data set on THP-1 cells (human) was determined as 30.5 ± 3.0 µM.

`COc1ccccc1CNC(=O)c1ccc(C(=O)NO)cc1` [Compound D16, reference compound]: the IC50 in data set [2] (setting [6]) was 7740 nM; at recombinant HDAC1 it was above 10000 nM; at recombinant HDAC6, 198 nM. For the same compound, the “inhibitory activity on type I RH-YFP parasites proliferation, in words” value in the data set with type I RH-YFP parasites is listed as “lack of inhibitory effect; also recorded: no inhibitory activity”. Moreover, the results for the “inhibitory activity on type II Prugniaud parasites proliferation, in words” value in [5] and in data set [5] (listed as Dl6) were “no inhibitory activity” and “lack of inhibitory effect”, respectively.

As to `O=C(CCCCCCC(=O)Nc1ccccc1)NO` [SAHA, suberoylanilide hydroxamic acid, reference compound], the “THP-1 LD50” value with THP-1 cells (MTT cytotoxicity) was above 200 µM.

For the compound `O=C(NO)c1ccccc1` [ST3, hydroxybenzamide, reference compound], the values for the IC50 in data set [3] and in [4] (setting [9]) were 29300 nM and above 50000 nM, respectively. Further, in the data set on HFF cells (MTT cytotoxicity), the “HFF LD50” value was above 400 µM.
